What was measured:
[1] = test system: human liver myofibroblasts; settings: literature; cited from earlier work
[2] = test system: inducible nitric-synthesase oxide (iNOS); assay: iNOS production by hTERT fibroblasts stimulated with cytokines (IL-1 + IFN-γ), iNOS-positive cells by flow cytometry; type: cell-based, human; settings: for number of iNOS-positive fibroblasts: pre-incubation at 1.25 - 2.5 - 5 µg/ml, then IL-1 3 ng/ml + IFN-γ 250 U/ml, 48 h, Figure 1
Procedure: The study aimed at determining the effects of treatment with piceide and resveratrol on the inducible nitric-synthesase oxide (iNOS) by corneal fibroblasts immortalised with human Telomerase Reverse Transcriptase (hTERT fibroblasts), stimulated with interferon-γ (IFN-γ) and interleukine-1 (IL-1).
Some hTERT fibroblasts were maintained in a DMEM culture medium. They were subsequently re-suspended at a concentration of 1x10^6 and placed on 24 mm-well plates. The cells were incubated at a temperature of 37°C with piceide or resveratrol at doses of 1.25 - 2.5 - 5 µg/ml. After 15 minutes the following were added to the wells containing the cells: IL-1 at a concentration of 3 ng/ml, and IFN-γ at a concentration of 250 U/ml. After a further 48 h of incubation, the fibroblasts were washed and re-suspended in PBS at a concentration of 1x10^6, in order to determine the iNOS-positive cells by means of flow cytometry.
The cells treated in the aforesaid way were permeabilised by treatment with 70% ethanol and then labelled with 5 µg/ml of a human anti-iNOS antibody labelled with FITC. After; colouring, the cells were fixed in paraformaldehyde and analysed by means of a FACScan cytofluorimeter.

[3] = test system: fibroblasts of normal corneal origin; assay: Differentiation of TGF-β-stimulated fibroblasts of normal corneal origin into myofibroblasts, α-SMA expression; type: cell-based
Excerpt: As reported in detail in the experimental section below, piceide has - unlike resveratrol - unexpectedly proven to be capable of modulating the capacity of TGF-β to cause fibroblast differentiation into myofibroblasts.

hTERT fibroblasts [4] = assay: Differentiation of TGF-β-stimulated hTERT fibroblasts into myofibroblasts, α-SMA-positive cells by flow cytometry; type: cell-based, human; settings: 5 µg/ml; for percentage of cells capable of expressing α-SMA: sub-optimal dose (0.1 ng/ml) of TGF-β, Figure 2
Procedure: The study aimed at determining the effects of piceide treatment on the differentiation of corneal fibroblasts immortalised with human inverse telomerase transcriptase (hTERT fibroblasts) stimulated with sub-optimal, optimal or above-optimal doses of TGF-β. Fibroblast differentiation into myofibroblasts was determined by examining whether there was any α-smooth muscle actin (α-SMA).
Some hTERT fibroblasts maintained in a DMEM culture were re-suspended at a concentration of 1x10^6 and placed on 24mm-well plates. The cells were incubated at a temperature of 37°C with piceide or resveratrol at doses of 5 µg/ml. After 24 h the cells were stimulated with optimal (1ng/ml), sub-optimal (0.1 ng/ml) and above-optimum (10 ng ml) doses of TGF-β. After 3, 5 and 10 days of incubation, the fibroblasts were washed and re-suspended in PBS at a concentration of 1x10^6, in order to determine the α-SMA-positive cells by means of flow cytometry.
The cells treated in the aforesaid way were permeabilised by treatment with 70% ethanol and then labelled with 5µg/ml of a human anti-α-SMA antibody labelled with FITC. After colouring, the cells were fixed in paraformaldehyde and analysed by a means of a FACScan cytofluorimeter.

hTERT fibroblasts [5] = assay: Toxicity for hTERT fibroblasts at the doses assayed; settings: doses of the differentiation study, 5 µg/ml
iNOS = iNOS production by fibroblasts of normal corneal origin stimulated with IL-1; type: cell-based; settings: equal doses
Excerpt: As will be illustrated in greater detail in the experimental section below, piceide - at non-toxic levels - blocks iNOS production and its activity is correlated to the dose. […] This different activity is probably due to the different chemical structure of the two molecules and to the consequent different biological characteristics, among which the greater bioavailability of piceide at the cell level is important. Another anti-inflammatory effect of piceide, linked to what has been said above, lies in its capacity to inhibit cyclooxygenase synthesis and thus the synthesis and release of pro-inflammatory prostaglandins.

| SMILES | effect on liver myofibroblasts [1] | decrease in iNOS-positive fibroblasts compared to resveratrol ([2]; equal doses 1.25 - 2.5 - 5 µg/ml, differences statistically significant at each point) | number of iNOS-positive fibroblasts [2] | TGF-β activity assessed by α-SMA expression ([3]; fibroblasts of normal corneal origin, sub-optimal concentration of TGF-β) | α-SMA expression ([3]; normal fibroblasts, above-optimal concentration of TGF-β) | percentage of α-SMA+ cells (hTERT fibroblasts [4]; above-optimal dose (10 ng/ml) of TGF-β, 5th day, Figure 4) | percentage of α-SMA+ cells (hTERT fibroblasts [4]; above-optimal dose (10 ng/ml) of TGF-β, 10th day, Figure 4) | percentage of α-SMA-positive cells (hTERT fibroblasts [4]; optimal dose (1 ng/ml) of TGF-β, all three time intervals (3, 5, 10 days), Figure 3) | percentage of cells capable of expressing α-SMA (hTERT fibroblasts [4]; 5th day) | percentage of cells capable of expressing α-SMA (hTERT fibroblasts [4]; 10th day) | percentage of cells capable of expressing α-SMA (hTERT fibroblasts [4]; 3 days, compared to non-treated) | toxicity (hTERT fibroblasts [5]) | inhibition of iNOS production compared to resveratrol (iNOS) | α-SMA expression [1] | percentage of α-SMA+ cells (hTERT fibroblasts [4]; above-optimal dose of TGF-β, time not stated) | percentage of α-SMA+ cells (hTERT fibroblasts [4]; optimal dose of TGF-β, time not stated) | percentage of α-SMA+ cells (hTERT fibroblasts [4]; sub-optimal dose of TGF-β, time not stated) |
| --- | --- | --- | --- | --- | --- | --- | --- | --- | --- | --- | --- | --- | --- | --- | --- | --- | --- |
| OC[C@H]1O[C@@H](Oc2cc(O)cc(/C=C/c3ccc(O)cc3)c2)[C@H](O)[C@@H](O)[C@@H]1O [piceide, resveratrol-3-O-β-mono-D-glucoside] | did not show any significant effects | greater | dose-dependent decrease | increase growth factor activity | decrease in α-SMA expression | percentage decrease in fibroblasts which was already significant | brought the number of fibroblasts back to physiological conditions | did not lead to any significant percentage variations | decreased, although still remaining statistically significant | no longer any significant percentages of cells able to express α-SMA | statistically significant increase | does not appear toxic | more effective |  |  |  |  |
| Oc1ccc(/C=C/c2cc(O)cc(O)c2)cc1 [resveratrol, reference compound] | able to deactivate human liver myofibroblasts |  | decrease |  |  |  |  |  |  |  |  |  |  | reduction | did not lead to any statistically significant variation | did not lead to any statistically significant variation | did not lead to any statistically significant variation |
| Oc1cc(O)cc(/C=C/c2ccc(O)c(O)c2)c1 [trans-piceatannol, trans-3,4',3',5-tetrahydroxystilbene] | neither trans-piceide nor another hydroxystilbene - trans-piceatannol (trans-3,4',3',5-tetrahydroxystilbene) - have shown any effect |  |  |  |  |  |  |  |  |  |  |  |  |  |  |  |  |
